Results taken from patent publication US8815935B2, “Inhibitors of protein prenyltransferases” (The Regents of the University of California, priority 2008, dated 2014).
Read-outs that look alike come from different tables or passages of the source.

Legend:
GGTase-I = molecular target: T1, GGTase-I (Rattus norvegicus, UniProt P53610+Q04631); assay: In vitro GGTase-I enzyme assay (IC50, kinetics); format: biochemical
T1 construct: purchased JENA BIOSCIENCE
Procedure: The GGTase-I assay was carried out using RhoA as a substrate protein, GGTase-I (JENA Bioscience) and [3H]geranylgeranyl pyrophosphate. Incubation was for 30 min at 37° C. GGTase-II (or RabGGTase) assay was carried out using YPTI as a substrate protein, GGTase-II (Calbiochem, San Diego, Calif.) plus REP1 (Calbiochem) and [3H]geranylgeranyl pyrophosphate. Incubation was for 30 min at 37° C. FIGS. 20D-20F show the three dimensional structure of GGTase I (D), FTsse (E) and GGTase II (F) which can be obtained from X-ray diffraction studies of protein crystals.
GGTase-I and FTase activities were determined by following the incorporation of radiolabeled isoprenoid [^3H]-geranylgeranyl or [^3H]-farnesyl into substrate proteins. FTase or GGTase-I (50 nM) were used to initiate reactions containing 0.4 μM of [^3H]-FPP or 0.5 μM of [^3H]-GGPP and 2 μM of MBP-tagged substrates (K-Ras4B for FTase; RhoA for GGTase-I) in 20 μl of buffer {50 mM Tris-HCl (pH 7.5), 10 mM MgCl2, […] and 5 mM DTT}. Inhibitors were added at the indicated concentrations. The final DMSO concentration was 2.5% for all samples.
Reactions were carried out for 10 min at 30° C. The reaction mixture was spotted onto a filter paper, treated with 10% trichloroacetic acid (TCA) followed by ethanol and acetone washing. The filter was counted using a scintillation counter. Kinetic assays in which the GGPP concentration was varied employed fixed concentrations of GGTase-I and RhoA, and reactions were carried out for 5 min. Similarly, fixed concentrations of GGTase-I and GGPP were used when the amount of RhoA was varied.

Jurkat cells = assay: Jurkat cell growth inhibition; format: cell-based, human
Procedure: In Table 4 in cell GI50 values for the growth inhibition of Jurkat cells are reported. The GI50 value is the concentration of a test compound needed to produce 50% growth inhibition in the cell type listed. In Table 4 the isolated yield of each synthetic step for the synthesis of corresponding compounds are also reported.
Panc-1 cells (Pancreatic cancer cell line) and Jurkat cells (T-cell leukemia) were treated with 12.5 μM of P5-H6 or 12.5 μM of mP5-H6a for 72 hours. The cell number was counted as described in Example 5.
Cell viability was determined by Cell Counting Kit-8 (CCK-8, Dojindo, Kumamoto, Japan) as described previously (31). Cell viability was calculated relative to the DMSO control. Cell cycle profile was analyzed by flow cytometry as described previously (32).

[1] = Tables 3, 5, 7, read-out: In vitro (enzyme assay) IC50, GGTase I
[2] = Homo sapiens, Jurkat, Tables 4, 6, 7, read-out: Jurkat cell GI50
[3] = Tables 8-15, no unit printed there (Table 7 head: μM unless otherwise specified), read-out: In vitro (GGTase I IC50)
[4] = Homo sapiens, Jurkat, Tables 8-15, no unit printed there, read-out: Jurkat GI50
[5] = Tables 4, 6, 7, read-out: Jurkat cell GI50
[6] = Tables 5, 14, read-out: In vitro (enzyme assay) IC50, GGTase I

For `CCOC(=O)C1=C[C@@H](C(C)(C)C)N(S(=O)(=O)c2ccccc2C)[C@H]1c1ccc(Cl)cc1`, the IC50 (GGTase-I; [1]) was > 50 µM and the GI50 (Jurkat cells; [2]) was 18.5 µM.
Work on `CONC(=O)C1=C[C@@H](C(C)(C)C)N(S(=O)(=O)c2ccccc2C)[C@H]1c1ccc(Cl)cc1` yielded an IC50 (GGTase-I; [1]) of 3.8 µM and a GI50 (Jurkat cells; [2]) of 12.6 µM.
In the case of `Cc1ccccc1S(=O)(=O)N1[C@@H](c2ccc(Cl)c(Cl)c2)C(C(=O)O)=C[C@H]1C(C)(C)C`, the IC50 (GGTase-I; [3]) is reported as 0.363 µM.
`CC(C)(C)[C@@H]1C=C(C(=O)O)[C@H](c2ccc(Cl)c(Cl)c2)N1S(=O)(=O)c1ccccc1Br` showed an IC50 (GGTase-I; [3]) of 0.348 µM.
In the case of `CC(C)(C)[C@@H]1C=C(C(=O)O)[C@H](c2ccc(Br)cc2)N1S(=O)(=O)c1ccccc1Cl`, the IC50 (GGTase-I; [3]) is reported as 0.349 µM.
For `Cc1ccccc1S(=O)(=O)N1[C@@H](c2ccc(Cl)cc2)C(C(=O)O)=C[C@H]1C(C)CC(C)(C)C` (stereo partly drawn), the IC50 (GGTase-I; [3]) was 3.4 µM.
`COC(=O)[C@H](Cc1ccccc1)NC(=O)CCOCC1=C[C@@H](C(C)(C)C)N(S(=O)(=O)c2ccccc2C)[C@H]1c1ccc(Cl)cc1` was tested, and the IC50 (GGTase-I; [3]) was > 20 µM and the GI50 (Jurkat cells; [4]) was 5.1 µM.
For `Cc1ccccc1S(=O)(=O)N1C(c2cccc(Cl)c2)C(C(N)=O)=CC[C@H]1c1ccc(Cl)cc1` (stereo partly drawn), the IC50 (GGTase-I; [3]) was > 20 µM and the GI50 (Jurkat cells; [4]) was 5.36 µM.
With `COC(=O)[C@H](CC(C)C)NC(=O)C1=CC[C@@H](c2ccc(Cl)cc2)N(S(=O)(=O)c2ccccc2C)C1c1cccc(Cl)c1` (stereo partly drawn) the IC50 (GGTase-I; [3]) was > 50 µM and the GI50 (Jurkat cells; [4]) was 6.1 µM.
`Cc1ccccc1S(=O)(=O)N1[C@@H](c2cccc(Cl)c2)C(C(=O)N[C@@H](CC(C)C)C(N)=O)=CC[C@H]1c1ccc(Cl)cc1` was tested, and the IC50 (GGTase-I; [3]) was > 50 µM.
Compound `CC(C)C[C@H](NC(=O)C1=CC[C@@H](c2cccc(Br)c2)N(S(=O)(=O)c2ccc(Cl)cc2)[C@H]1c1cccc(Cl)c1)C(N)=O` has an IC50 (GGTase-I; [3]) of 39.1 µM.
`COC(=O)[C@H](Cc1ccccc1)NC(=O)C1=C[C@@H](C(C)(C)C)N(S(=O)(=O)c2ccccc2C)[C@H]1c1ccc(Cl)cc1` [P61-A05] gave a GI50 (Jurkat cells; [5]) of 10.5 µM.
In the case of `Cc1ccccc1S(=O)(=O)N1[C@@H](c2ccc(Cl)cc2)C(C(=O)N[C@@H](Cc2ccccc2)C(N)=O)=C[C@H]1C(C)(C)C` [P61-A06], the GI50 (Jurkat cells; [2]) is reported as 4.89 µM.
With `Cc1ccccc1S(=O)(=O)N1[C@@H](c2ccc(Cl)cc2)C(C(=O)N[C@@H](Cc2ccccc2)C(=O)O)=C[C@H]1C(C)(C)C` [P61-A08] the IC50 (GGTase-I; [1]) was 1.4 µM and the GI50 (Jurkat cells; [2]) was 13 µM.
Work on `Cc1ccccc1S(=O)(=O)N1[C@@H](c2ccc(Cl)cc2)C(C(=O)N[C@@H](CC(C)C)C(N)=O)=C[C@H]1C(C)(C)C` [P61-B02] yielded an IC50 (GGTase-I; [1]) of 8.1 µM and a GI50 (Jurkat cells; [2]) of 6.58 µM.
With `Cc1ccccc1S(=O)(=O)N1[C@@H](c2ccc(Cl)cc2)C(C(=O)N[C@@H](Cc2ccccc2)C(N)=O)=C[C@H]1C(C)(C)C` [P61-B07] the GI50 (Jurkat cells; [5]) was 6.1 µM.
In the case of `Cc1ccccc1S(=O)(=O)N1C(c2cccc(Cl)c2)C(C(=O)N[C@@H](CC(C)C)C(N)=O)=CC[C@H]1c1ccc(Cl)cc1` (stereo partly drawn) [P61-C05], the IC50 (GGTase-I; [1]) is reported as > 50 µM and the GI50 (Jurkat cells; [2]) is reported as 6.1 µM.
In the case of `CC(C)C[C@H](NC(=O)C1=CC[C@@H](c2cccc(Br)c2)N(S(=O)(=O)c2ccc(Cl)cc2)C1c1cccc(Cl)c1)C(N)=O` (stereo partly drawn) [P61-C06], the IC50 (GGTase-I; [1]) is reported as 39.1 µM and the GI50 (Jurkat cells; [2]) is reported as 3.15 µM.
In the case of `CC(C)(C)[C@@H]1C=C(C(=O)N[C@@H](Cc2ccccc2)C(N)=O)[C@H](c2ccc(Cl)c(Cl)c2)N1S(=O)(=O)c1ccccc1Br` [P61-E03], the IC50 (GGTase-I; [1]) is reported as > 20 µM.
In the case of `COC(=O)[C@H](CC(C)C)NC(=O)C1=CC[C@@H](c2ccc(Cl)cc2)N(S(=O)(=O)c2ccccc2C)[C@H]1c1cccc(Cl)c1` [P61-E07], the IC50 (GGTase-I; [1]) is reported as > 20 µM and the GI50 (Jurkat cells; [2]) is reported as 3.53 µM.
In the case of `CC(C)C[C@H](NC(=O)C1=CC[C@@H](c2cccc(Cl)c2)N(S(=O)(=O)c2ccc(Br)cc2)[C@H]1c1cccc(Cl)c1)C(N)=O` [P61-E08], the IC50 (GGTase-I; [1]) is reported as > 20 µM.
With `NC(=O)[C@H](Cc1ccccc1)NC(=O)C1=CC[C@@H](c2cccc(Cl)c2)N(S(=O)(=O)c2ccc(Br)cc2)C1c1cccc(Br)c1` (stereo partly drawn) [P61-E09] the IC50 (GGTase-I; [1]) was > 20 µM and the IC50 (GGTase-I; [3]) was > 20 µM.
Work on `CC(C)CC(NC(=O)C1=CCC(c2cccc(Cl)c2)N(S(=O)(=O)c2ccc(Br)cc2)C1c1cccc(Cl)c1)C(=O)O` (stereo not drawn) [P61-E11] yielded an IC50 (GGTase-I; [6]) of 0.5 µM.
For `NC(=O)[C@H](Cc1ccccc1)NC(=O)C1=CC[C@@H](c2cccc(Br)c2)N(S(=O)(=O)c2ccc(Cl)cc2)C1c1cccc(Cl)c1` (stereo partly drawn) [P61-F11], the IC50 (GGTase-I; [6]) was 0.3 µM.
`NC(=O)[C@H](Cc1ccccc1)NC(=O)C1=CC[C@@H](c2cccc(Br)c2)N(S(=O)(=O)c2ccc(Cl)cc2)C1c1cccc(Cl)c1` (stereo partly drawn) [P61-G02] was tested, and the IC50 (GGTase-I; [6]) was 0.45 µM.
`O=C(NC(Cc1ccccc1)C(=O)O)C1=CCC(c2cccc(Cl)c2)N(S(=O)(=O)c2ccc(Br)cc2)C1c1cccc(Cl)c1` (stereo not drawn) [P61-G05] showed an IC50 (GGTase-I; [6]) of 0.15 µM.
Work on `O=C(NC(Cc1ccccc1)C(=O)O)C1=CCC(c2cccc(Br)c2)N(S(=O)(=O)c2ccc(Cl)cc2)C1c1cccc(Cl)c1` (stereo not drawn) [P61-G07] yielded an IC50 (GGTase-I; [6]) of 0.07 µM.
`CC(C)CC(NC(=O)C1=CCC(c2cccc(Br)c2)N(S(=O)(=O)c2ccc(Cl)cc2)C1c1cccc(Cl)c1)C(=O)O` (stereo not drawn) [P61-G08] was tested, and the IC50 (GGTase-I; [6]) was 0.06 µM.
Work on `CC(C)CC(NC(=O)C1=CCC(c2cccc(Br)c2)N(S(=O)(=O)c2ccc(F)cc2)C1c1cccc(Cl)c1)C(=O)O` (stereo not drawn) [P61-H06] yielded an IC50 (GGTase-I; [6]) of 0.21 µM and a GI50 (Jurkat cells; Homo sapiens, Jurkat, Table 6, read-out: Jurkat cell GI50) of 0.21 µM.
`O=C(N[C@@H](Cc1ccccc1)C(=O)O)C1=CC[C@@H](c2cccc(Br)c2)N(S(=O)(=O)c2ccc(F)cc2)[C@H]1c1cccc(Cl)c1` [P61-H07] showed an IC50 (GGTase-I; [6]) of 0.011 µM.
Compound `CC(C)CC(NC(=O)C1=CCC(c2cccc(Cl)c2)N(S(=O)(=O)c2ccc(Cl)cc2)C1c1cccc(Cl)c1)C(=O)O` (stereo not drawn) [P61-H08] has an IC50 (GGTase-I; [6]) of 0.18 µM.
For `O=C(NC(Cc1ccccc1)C(=O)O)C1=CCC(c2cccc(Cl)c2)N(S(=O)(=O)c2ccc(Cl)cc2)C1c1cccc(Cl)c1` (stereo not drawn) [P61-H09], the IC50 (GGTase-I; [6]) was 0.021 µM.
With `COC(=O)C(CC(C)C)NC(=O)C1=CCC(c2cccc(Cl)c2)N(S(=O)(=O)c2ccc(Br)cc2)C1c1cccc(Br)c1` (stereo not drawn) [P67-A04] the IC50 (GGTase-I; [1]) was > 20 µM and the GI50 (Jurkat cells; [2]) was 8 µM.
For `COC(=O)C(CC(C)C)NC(=O)C1=CCC(c2cccc(Cl)c2)N(S(=O)(=O)c2ccc(Cl)cc2)C1c1cccc(Cl)c1` (stereo not drawn) [P67-A05], the IC50 (GGTase-I; [1]) was > 20 µM.
For `COC(=O)C(CC(C)C)NC(=O)C1=CCC(c2cccc(Br)c2)N(S(=O)(=O)c2ccc(Cl)cc2)C1c1cccc(Cl)c1` (stereo not drawn) [P67-A07], the IC50 (GGTase-I; [1]) was > 20 µM.
For `COC(=O)C(CC(C)C)NC(=O)C1=CCC(c2cccc(Cl)c2)N(S(=O)(=O)c2ccc(Br)cc2)C1c1cccc(Cl)c1` (stereo not drawn) [P67-A09], the IC50 (GGTase-I; [1]) was > 20 µM and the GI50 (Jurkat cells; [2]) was 3.81 µM.
In the case of `COC(=O)C(CC(C)C)NC(=O)C1=CCC(c2cccc(Br)c2)N(S(=O)(=O)c2ccc(F)cc2)C1c1cccc(Cl)c1` (stereo not drawn) [P67-H11], the IC50 (GGTase-I; [1]) is reported as > 20 µM.
With `Cc1ccccc1S(=O)(=O)N1[C@@H](c2ccc(Cl)cc2)C(C(=O)O)=C[C@H]1C(C)(C)C` [drawing 136] the IC50 (GGTase-I; [1]) was 0.5 µM and the GI50 (Jurkat cells; [2]) was 20 µM.
Compound `Cc1ccccc1S(=O)(=O)N1[C@@H](c2ccc(Cl)cc2)C(C(=O)O)=C[C@H]1C(C)(C)C` [drawing 143] has an IC50 (GGTase-I; [3]) of 0.5 µM and a GI50 (Jurkat cells; [4]) of 20 µM.
With `CC(C)(C)[C@@H]1C=C(C(=O)N[C@@H](Cc2ccccc2)C(N)=O)[C@H](c2ccc(Cl)c(Cl)c2)N1S(=O)(=O)c1ccccc1Br` [drawing 167] the IC50 (GGTase-I; [3]) was > 20 µM.
`Cc1ccccc1S(=O)(=O)N1C(c2cccc(Cl)c2)C(C(=O)O)=CC[C@H]1c1ccc(Cl)cc1` (stereo partly drawn) [drawing 183] was tested, and the IC50 (GGTase-I; [3]) was 0.31 µM and the GI50 (Jurkat cells; [4]) was 20 µM.
`Cc1ccccc1S(=O)(=O)N1C(c2cccc(Cl)c2)C(C(=O)O)=CC[C@H]1c1ccc(Cl)cc1` (stereo partly drawn) [drawing 189] gave an IC50 (GGTase-I; [3]) of 0.31 µM.
In the case of `CC(C)C[C@H](NC(=O)C1=CC[C@@H](c2cccc(Cl)c2)N(S(=O)(=O)c2ccc(Br)cc2)[C@H]1c1cccc(Cl)c1)C(N)=O` [drawing 209], the IC50 (GGTase-I; [3]) is reported as > 20 µM.
